Laboratory results: patent US20050048596A1, “Assay for detecting changes in mitochondrial membrane permeability and method of using same” (priority 2003, published 2005)

Tests used:
MPT pore [1] = experiment: Enzymatic assay (ADH/NADH oxidase/HRP/Amplex Red) of calcium-induced pyridine nucleotide release from isolated liver mitochondria, Resorufin fluorescence; assay type: biochemical, rat; conditions: BA 20 μM; calcium 100 μM; isolated liver mitochondria 0.125 mg/ml protein; FIG. 5
Description: FIG. 5 illustrates the recording of fluorescence intensity following calcium additions to isolated liver mitochondria in the assay mixture. Controls; only calcium (100 μM) was added. BA; the same amount of calcium (100 μM) was added to mitochondria incubated in the presence of 20 μM Bongrekig acid.
In one preferred embodiment, the assay for pyridine nucleotides measurement may comprise several enzymatic reactions—cyclic and/or coupled—which use oxidized or reduced form of nicotinamide adenine dinucleotides (NAD^+, NADH, respectively) as substrate, thereby providing a detectable final product (FIG. 1). In the first step shown in FIG. 1, alcohol dehydrogenase (ADH) converts ethanol to acetaldehyde in the presence of NAD^+, which is released from mitochondria and reduced to NADH. In the next reaction NADH oxidase (Ox) oxidizes NADH back to NAD^+, and hydrogen peroxide (H2O2) is produced from water in the process. In the last reaction, horseradish peroxidase (HRP) produces a detectable signal in the presence of hydrogen peroxide. […]
Experiments with isolated liver mitochondria were carried out in the same medium as those without; however, no substrate was added, since respiring mitochondria produce superoxide (O2^−). […] Leakage of H2O2 into the medium is expected to give a increase in fluorescence intensity which is not due to the release of pyridine nucleotides from mitochondria. […]

MPT pore [2] = experiment: Calcium-induced swelling of isolated liver mitochondria, light scattering at 540 nm; assay type: biochemical, rat; conditions: BA 20 μM; calcium 100 μM; no enzymes in medium; FIG. 6
Source text: FIG. 6 illustrates calcium-induced swelling of mitochondria isolated from whole liver. The swelling is detected by recording the light scattering of mitochondrial suspension at 540 nm. Experimental conditions are the same as described in FIG. 5, except no enzymes were present in the medium.
The opening of the MPT pore leads to osmotic swelling of mitochondria, which can be detected as decreased light scattering. […] However, a more significant and progressive decrease in light scattering starting at about 300 sec. following the initial calcium pulse occurred.
Male Wistar rats weighing about 300 g were used for isolation of rat liver mitochondria. For examination of calcium-induced release of NAD^+, 0.125 mg/ml of mitochondrial protein were used. The mitochondria were incubated in 2ml of the reaction buffer containing all compounds required for the assay.

Q: What does the source list for `CO[C@H](C/C=C\C=C\CC/C=C/C[C@H](C)/C=C/C(=C\C(=O)O)CC(=O)O)/C(C)=C\C=C(/C)C(=O)O` [BA, Bongkrekic acid]?
A: increase in fluorescence following calcium addition (release of pyridine nucleotides) (MPT pore [1]): blocked; calcium-induced swelling of mitochondria (decrease in light scattering at 540 nm) (MPT pore [2]): inhibited
